For one experiment, the target named is T1, soybean lipoxygenase (Glycine max, UniProt P08170).
T1 sequence (P08170 1-839): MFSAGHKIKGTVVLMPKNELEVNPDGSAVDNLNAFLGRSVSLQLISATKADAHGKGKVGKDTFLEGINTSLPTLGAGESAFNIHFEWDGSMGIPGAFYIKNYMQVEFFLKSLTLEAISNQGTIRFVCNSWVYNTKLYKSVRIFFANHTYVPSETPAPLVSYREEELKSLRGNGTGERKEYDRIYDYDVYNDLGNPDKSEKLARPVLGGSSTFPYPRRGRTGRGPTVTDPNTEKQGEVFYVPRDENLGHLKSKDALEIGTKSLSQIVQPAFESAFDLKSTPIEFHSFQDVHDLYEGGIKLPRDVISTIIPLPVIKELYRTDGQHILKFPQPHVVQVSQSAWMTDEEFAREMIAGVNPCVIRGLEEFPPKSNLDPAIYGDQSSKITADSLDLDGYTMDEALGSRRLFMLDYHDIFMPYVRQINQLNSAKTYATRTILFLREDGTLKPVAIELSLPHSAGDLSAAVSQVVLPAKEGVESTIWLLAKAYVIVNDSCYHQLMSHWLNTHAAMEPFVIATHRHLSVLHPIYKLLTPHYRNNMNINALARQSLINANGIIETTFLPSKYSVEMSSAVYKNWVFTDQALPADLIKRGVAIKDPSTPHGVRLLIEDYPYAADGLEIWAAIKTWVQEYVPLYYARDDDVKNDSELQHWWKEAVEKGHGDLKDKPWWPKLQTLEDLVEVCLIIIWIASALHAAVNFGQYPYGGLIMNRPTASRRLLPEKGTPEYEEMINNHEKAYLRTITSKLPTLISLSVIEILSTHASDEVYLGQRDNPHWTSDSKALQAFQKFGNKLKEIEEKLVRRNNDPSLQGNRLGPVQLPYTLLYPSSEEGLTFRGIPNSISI
Briefly: Inhibition of soybean lipoxygenase. It is filed as biochemical. The settings on record: for inhibition at 100 µM: read-out: LOX % Inhibition 100 μM. The procedure: Lipoxygenase (LOX) plays a key role in the formation of leukotrienes, which are important inflammatory mediators. Leukotrienes are considered key therapeutic targets in inflammatory diseases due to their role. Soybean lipoxygenase (LOX), a plant-based enzyme, has long been used as a model system to study the structural and functional characteristics of the lipoxygenase family due to its significant homology with human 5-LOX [39].
Sodium linoleate (0.1 mM), 0.2 mL of soybean lipoxygenase solution (1/9 × 10^−4 w/v in saline), and 10 μL of the test compound stock solution (10 mM in DMSO) were incubated at room temperature. The formation of 13-hydroperoxy-linoleic acid was monitored by measuring absorbance at 234 nm. […] A couple of concentrations of the test compounds were used to calculate the IC50 values.

A short description of experiment [1]: Interaction with the stable free radical DPPH (reducing activity). The procedure: The synthesized derivatives were tested for their interaction with the stable free radical 2,2-diphenyl-1-picrylhydrazyl (DPPH) at a concentration of 100 μM after 20 and 60 min (Table 4). DPPH is widely used as a standard method for evaluating antioxidant activity. […] However, lipophilic compounds typically dissolve efficiently in organic solvents when they react with DPPH. The relationship between antioxidant activity and lipophilicity was reported in previous studies.
In vitro assays were carried out to evaluate the reducing activity of the novel derivatives against the DPPH stable radical. Free radical scavenging activity was determined by measuring absorbance at 517 nm after 20 and 60 min at room temperature. NDGA served as the reference compound. (Table 4).

A short description of experiment [2]: Inhibition of AAPH-induced linoleic acid peroxidation. The source says:
In the lipid peroxidation assay, sodium linoleate was used as the substrate, while 2,2′-azobis(2-methylpropionamidine) dihydrochloride (AAPH) was the peroxyl radical initiator. The formation of 13-hydroperoxy-linoleic acid from linoleic acid was observed by UV-Vis absorption measurements at 234 nm. Trolox was used as a reference compound.
AAPH was used as an alkyl peroxyl radical inducer. In this experiment, the compounds’ ability to prevent linoleic acid oxidation by alkyl peroxyl radicals through absorbance changes at 234nm was evaluated, corresponding to the production of 13-hydroperoxy-linoleic acid. Trolox was used as the reference compound.

Each structure is given as a SMILES string. Where two headings read alike, the source gives them in different places.

Usually IC50 stands for the concentration needed to halve the response being measured. Consider `CC(=O)Nc1ccc(Sc2nsnc(Cl)c2=O)cc1` [Compound 11d, N-{4-[(5-Chloro-4-oxo-4H-1,2,6-thiadiazin-3-yl)thio]phenyl}acetamide], for which the half-inhibitory concentration (IC50) on soybean lipoxygenase was 85 µM. Further, in experiment [1], the “RA%, DPPH, 20 min (100 µM)” value came out at 1% and the “RA%, DPPH, 60 min (100 µM)” value is reported as 2%. Also, in experiment [2], the “%AAPH (100 µM)” value was 43%.
Take `O=c1c(Cl)nsnc1Sc1nc2ccccc2o1` [Compound 11c, 3-(Benzo[d]oxazol-2-ylthio)-5-chloro-4H-1,2,6-thiadiazin-4-one]: at soybean lipoxygenase, 77.5 µM corresponded to half-maximal inhibition (IC50). Besides, in experiment [1], the “RA%, DPPH, 20 min (100 µM)” value amounted to 21% and the “RA%, DPPH, 60 min (100 µM)” value was 22%. In addition, the “%AAPH (100 µM)” value in experiment [2] stood at 5%.
Usually inhibition stands for the share of the control response that was lost under treatment. Consider `N#CC(C#N)=C1C(Cl)=NSN=C1Sc1nc2ccccc2o1` [Compound 12c, 2-[3-(Benzo[d]oxazol-2-ylthio)-5-chloro-4H-1,2,6-thiadiazin-4-ylidene]malononitrile], for which the inhibition at 100 µM on soybean lipoxygenase was 27%. In experiment [1], the “RA%, DPPH, 20 min (100 µM)” value is 89% and the “RA%, DPPH, 60 min (100 µM)” value worked out at 92%. Moreover, in experiment [2], the “%AAPH (100 µM)” value turned out to be 70%.
The matching figures for `Cc1ccnc(SC2=NSN=C(Cl)C2=C(C#N)C#N)n1` [Compound 12a, 2-{3-Chloro-5-[(4-methylpyrimidin-2-yl)thio]-4H-1,2,6-thiadiazin-4-ylidene}malononitrile]: 41%, 82%, 90% and 18%.
In the case of `O=c1c(Cl)nsnc1N1CCN(C(c2ccccc2)c2ccccc2)CC1` [Compound 9b, 3-(4-Benzhydrylpiperazin-1-yl)-5-chloro-4H-1,2,6-thiadiazin-4-one], 55 µM corresponded to half-maximal inhibition against soybean lipoxygenase (IC50). Further, in experiment [1], the “RA%, DPPH, 20 min (100 µM)” value is recorded as 2% and the “RA%, DPPH, 60 min (100 µM)” value is given as 2%. For the same compound, the “%AAPH (100 µM)” value in experiment [2] came to 20%.
On soybean lipoxygenase, `Cn1cnnc1Sc1nsnc(Cl)c1=O` [Compound 11f, 3-Chloro-5-[(4-methyl-4H-1,2,4-triazol-3-yl)thio]-4H-1,2,6-thiadiazin-4-one] showed an IC50 of 52.5 µM. Besides, in experiment [1], the “RA%, DPPH, 20 min (100 µM)” value is recorded as 10% and the “RA%, DPPH, 60 min (100 µM)” value is reported as 12%. Also, in experiment [2], the “%AAPH (100 µM)” value came to 7%.
Consider `Cn1nnnc1Sc1nsnc(Cl)c1=O` [Compound 11b, 3-Chloro-5-[(1-methyl-1H-tetrazol-5-yl)thio]-4H-1,2,6-thiadiazin-4-one], for which, on soybean lipoxygenase, the inhibition at 100 µM stood at 44%. In experiment [1], the “RA%, DPPH, 20 min (100 µM)” value turned out to be 3% and the “RA%, DPPH, 60 min (100 µM)” value is given as 3%. The “%AAPH (100 µM)” value in experiment [2] is reported as 45%.
As for `Cn1nnnc1SC1=NSN=C(Cl)C1=C(C#N)C#N` [Compound 12b, 2-{3-Chloro-5-[(1-methyl-1H-tetrazol-5-yl)thio]-4H-1,2,6-thiadiazin-4-ylidene}malononitrile], on soybean lipoxygenase, the IC50 was 75 µM. Also, in experiment [1], the “RA%, DPPH, 20 min (100 µM)” value turned out to be 27% and the “RA%, DPPH, 60 min (100 µM)” value is recorded as 36%. Further, in experiment [2], the “%AAPH (100 µM)” value was “No”.
As for `N#CC(C#N)=C1C(Cl)=NSN=C1N1CCN(C(c2ccccc2)c2ccccc2)CC1` [Compound 10b, 2-[3-(4-Benzhydrylpiperazin-1-yl)-5-chloro-4H-1,2,6-thiadiazin-4-ylidene]malononitrile], the IC50 at soybean lipoxygenase (read-out: LOX IC50) came to 67.5 µM. Moreover, in experiment [1], the “RA%, DPPH, 20 min (100 µM)” value is on record as “no” and the “RA%, DPPH, 60 min (100 µM)” value was “no”. The “%AAPH (100 µM)” value in experiment [2] is listed as “No”.
Compound `CCOc1ccc2nc(Sc3nsnc(Cl)c3=O)sc2c1` [Compound 11i, 3-Chloro-5-[(6-ethoxybenzo[d]thiazol-2-yl)thio]-4H-1,2,6-thiadiazin-4-one] registered an IC50 at soybean lipoxygenase of 67.5 µM. Further, in experiment [1], the “RA%, DPPH, 20 min (100 µM)” value worked out at 3% and the “RA%, DPPH, 60 min (100 µM)” value was “no”. For the same compound, the “%AAPH (100 µM)” value in experiment [2] is “No”.
In the case of `Cc1ccnc(Sc2nsnc(Cl)c2=O)n1` [Compound 11a, 3-Chloro-5-[(4-methylpyrimidin-2-yl)thio]-4H-1,2,6-thiadiazin-4-one], on soybean lipoxygenase, the inhibition at 100 µM worked out at 31%. In addition, in experiment [1], the “RA%, DPPH, 20 min (100 µM)” value came out at 2% and the “RA%, DPPH, 60 min (100 µM)” value is listed as “no”. Moreover, the “%AAPH (100 µM)” value in experiment [2] is listed as “No”.
In the case of `CC(Cc1ccc(O)c(O)c1)C(C)Cc1ccc(O)c(O)c1` (centres unmarked) [NDGA, Nordihydroguaiaretic acid, reference compound], in experiment [1], the “RA%, DPPH, 20 min (100 µM)” value worked out at 87% and the “RA%, DPPH, 60 min (100 µM)” value was found to be 87%. The “RA%, DPPH, 60 min (100 µM)” value in experiment [1] (listed as ΝDGA) is listed as 93%.
As to `O=c1c(Cl)nsnc1Sc1nccs1` [Compound 11g, 3-Chloro-5-(thiazol-2-ylthio)-4H-1,2,6-thiadiazin-4-one], the inhibition at 100 µM at soybean lipoxygenase was found to be 40%. In addition, in experiment [1], the “RA%, DPPH, 20 min (100 µM)” value amounted to 10% and the “RA%, DPPH, 60 min (100 µM)” value worked out at 7%. The “%AAPH (100 µM)” value in experiment [2] is given as “No”.
`O=c1c(Cl)nsnc1N1CCN(c2ccccc2)CC1` [Compound 9a, 3-Chloro-5-(4-phenylpiperazin-1-yl)-4H-1,2,6-thiadiazin-4-one] yielded an IC50 against soybean lipoxygenase of 7.5 µM. For the same compound, in experiment [1], the “RA%, DPPH, 20 min (100 µM)” value is listed as 7% and the “RA%, DPPH, 60 min (100 µM)” value is 6%. For the same compound, in experiment [2], the “%AAPH (100 µM)” value was determined as 15%.
With `Cc1c(C)c2c(c(C)c1O)CCC(C)(C(=O)O)O2` (centres unmarked) [Trolox, reference compound], in experiment [2], the “%AAPH (100 µM)” value amounted to 93%.
For the compound `O=c1c(Cl)nsnc1Sc1nnnn1-c1ccccc1` [Compound 11e, 3-Chloro-5-[(1-phenyl-1H-tetrazol-5-yl)thio]-4H-1,2,6-thiadiazin-4-one], the inhibition at 100 µM on soybean lipoxygenase was determined as 50%. Also, in experiment [1], the “RA%, DPPH, 20 min (100 µM)” value was 15% and the “RA%, DPPH, 60 min (100 µM)” value is recorded as 17%. The “%AAPH (100 µM)” value in experiment [2] was “No”.
The matching figures for `N#CC(C#N)=C1C(Cl)=NSN=C1N1CCN(c2ccccc2)CC1` [Compound 10a, 2-[3-Chloro-5-(4-phenylpiperazin-1-yl)-4H-1,2,6-thiadiazin-4-ylidene]malononitrile]: 46%, 16%, 15% and 27%.
Turning to `O=c1c(Cl)nsnc1Sc1nc2ccccc2s1` [Compound 11h, 3-(benzo[d]thiazol-2-ylthio)-5-chloro-4H-1,2,6-thiadiazin-4-one], the inhibition at 100 µM at soybean lipoxygenase stood at 33%. In experiment [1], the “RA%, DPPH, 20 min (100 µM)” value is on record as 8% and the “RA%, DPPH, 60 min (100 µM)” value worked out at 1%. The “%AAPH (100 µM)” value in experiment [2] was “No”.

Values taken from PMC12733323, “Novel Mono-Substituted 4H-1,2,6-Thiadiazines with Antioxidant and Anti-Lipoxygenase Activities” (International Journal of Molecular Sciences, 2025).
